Measurements: patent US20250230193A1, “CYCLIC COMPOUND HAVING SELECTIVE KRAS INHIBITORY EFFECT ON HRAS AND NRAS” (CHUGAI SEIYAKU KABUSHIKI KAISHA, priority 2022, published 2025)

Key:
[1] = test system: human lung cancer strain NCI-H441; assay: cells; settings: NCI-H441, 96 h, read-out: NCI-H441 IC50 (nM)
[2] = target: GDP-bound HRAS wild-type protein (Homo sapiens, UniProt P01112); assay: Binding to HRAS by surface plasmon resonance (SPR), Single Cycle Kinetics; settings: SPR; for HRAS/KRAS (ratio of KD value with respect to GDP-bound HRAS wild-type protein to KD value with respect to KRAS): GDP-bound wild-type proteins
[3] = target: GDP-bound NRAS wild-type protein (Homo sapiens, UniProt P01111); assay: Binding to NRAS by surface plasmon resonance (SPR), Single Cycle Kinetics; settings: KD ratio NRAS/KRAS, SPR, GDP-bound wild-type proteins
GDP-bound NRAS wild-type protein, sequence (P01111 whole entry): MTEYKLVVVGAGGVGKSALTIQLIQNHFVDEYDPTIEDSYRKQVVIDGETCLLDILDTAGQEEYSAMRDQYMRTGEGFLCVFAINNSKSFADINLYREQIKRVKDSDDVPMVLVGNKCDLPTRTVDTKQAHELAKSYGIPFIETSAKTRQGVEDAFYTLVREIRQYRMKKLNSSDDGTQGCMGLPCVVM

GDP-bound HRAS wild-type protein, sequence (P01112 whole entry): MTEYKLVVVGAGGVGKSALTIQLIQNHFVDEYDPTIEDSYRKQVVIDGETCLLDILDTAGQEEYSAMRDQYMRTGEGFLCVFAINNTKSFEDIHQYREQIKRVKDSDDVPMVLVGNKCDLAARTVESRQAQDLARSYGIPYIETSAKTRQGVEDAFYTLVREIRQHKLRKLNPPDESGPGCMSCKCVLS

Compound | IC50 [1] [nM] | HRAS/KRAS (ratio of KD value for GDP-bound HRAS wild-type protein to KD value for KRAS) ([2]; KD ratio class) | NRAS/KRAS (ratio of KD value with respect to GDP-bound NRAS wild-type protein to KD value with respect to KRAS) [3] | HRAS/KRAS (ratio of KD value with respect to GDP-bound HRAS wild-type protein to KD value with respect to KRAS) [2]
CCO[C@@H]1C[C@H]2C(=O)NC3(CCC3)C(=O)N(C)[C@@H](C(CC)CC)C(=O)N(C)[C@H](C)CC(=O)N(C)[C@@H](CC3CCCC3)C(=O)N[C@@H]([C@@H](C)CC)C(=O)N(C)CC(=O)N(C)[C@H]3C/C=C\CCN(C3=O)[C@@H](Cc3ccc(F)cc3)C(=O)N(C)CC(=O)N[C@@H](CCc3cc(F)c(C(F)(F)F)c(F)c3)C(=O)N2C1 [PP1523] | 320 | – | – | –
CCO[C@@H]1C[C@H]2C(=O)NC3(CCC3)C(=O)N(C)[C@@H](C(CC)CC)C(=O)N3CCC[C@@H]3CC(=O)N(C)[C@@H](CC)C(=O)N[C@@H]([C@@H](C)CC)C(=O)N(C)CC(=O)N(C)[C@H]3C/C=C\CCN(C3=O)[C@@H](Cc3ccc(C(F)(F)F)cc3)C(=O)N(C)CC(=O)N[C@@H](CCc3cc(F)c(C(F)(F)F)c(F)c3)C(=O)N2C1 [PP1607] | 39.3 | A (a compound having 10 or more and less than 20 is denoted as A) | – | –
CCC[C@H]1C(=O)N[C@@H]([C@@H](C)CC)C(=O)N2CCC[C@H]2C(=O)N(C)[C@H]2C/C=C\CCN(C2=O)[C@@H](Cc2ccc(C)cc2)C(=O)N(C)CC(=O)N[C@@H](CCc2cc(F)c(C(F)(F)F)c(F)c2)C(=O)N2C[C@H](OCC)C[C@H]2C(=O)N(C)C2(CCC2)C(=O)N(C)[C@@H](C2CCCC2)C(=O)N(C)[C@H](C(=O)N2CCCC2)CC(=O)N1C [PP3117, (1S,4S,10S,13S,17S,20S,26S,28R,32S,38S,42Z)-20-cyclopentyl-32-[2-[3,5-difluoro-4-(trifluoromethyl)phenyl]ethyl]-28-ethoxy-2,14,18,21,24,36-hexamethyl-10-[(1S)-1-methylpropyl]-13-propyl-38-(p-tolylmethyl)-17-(pyrrolidine-1-carbonyl)spiro[2,8,11,14,18,21,24,30,33,36,39-undecazatetracyclo[37.5.1.0^4,8.0^26,30]pentatetracont-42-ene-23,1′-cyclobutane]-3,9,12,15,19,22,25,31,34,37,45-undecone] | – | – | A (a compound having 10 or more and less than 20 is denoted as A) | A (a compound having 10 or more and less than 20 is denoted as A)
CCC[C@H]1C(=O)N[C@@H]([C@@H](C)CC)C(=O)N(C)CC(=O)N(C)[C@H]2C/C=C\CCN(C2=O)[C@@H](Cc2ccc(C(F)(F)F)cc2)C(=O)N(C)CC(=O)N[C@@H](CCc2cc(F)c(C(F)(F)F)c(F)c2)C(=O)N2C[C@H](OCC)C[C@H]2C(=O)N(C)C2(CCC2)C(=O)N(C)[C@@H](C2CCCC2)C(=O)N(C)[C@H](C(=O)N2CCCCC2)CC(=O)N1C [PP3118, (2S,8S,12R,14S,20S,23S,27S,30S,36S,38Z)-20-cyclopentyl-8-[2-[3,5-difluoro-4-(trifluoromethyl)phenyl]ethyl]-12-ethoxy-4,16,19,22,26,32,35-heptamethyl-30-[(1S)-1-methylpropyl]-23-(piperidine-1-carbonyl)-27-propyl-2-[[4-(trifluoromethyl)phenyl]methyl]spiro[1,4,7,10,16,19,22,26,29,32,35-undecazatricyclo[34.5.1.0^10,14]dotetracont-38-ene-17,1′-cyclobutane]-3,6,9,15,18,21,25,28,31,34,42-undecone] | – | – | A (a compound having 10 or more and less than 20 is denoted as A) | B (a compound having 3 or more and less than 10 is denoted as B)
CCC[C@H]1C(=O)N[C@@H]([C@@H](C)CC)C(=O)N(C)CC(=O)N(C)[C@H]2C/C=C\CCN(C2=O)[C@@H](Cc2ccc(C)cc2)C(=O)N(C)CC(=O)N[C@@H](CCc2cc(F)c(C(F)(F)F)c(F)c2)C(=O)N2C[C@H](OCC)C[C@H]2C(=O)N(C)C2(CCC2)C(=O)N(C)[C@@H](C2CCCC2)C(=O)N(C)[C@H](C(=O)N2CCCCC2)CC(=O)N1C [PP3119, (2S,8S,12R,14S,20S,23S,27S,30S,36S,38Z)-20-cyclopentyl-8-[2-[3,5-difluoro-4-(trifluoromethyl)phenyl]ethyl]-12-ethoxy-4,16,19,22,26,32,35-heptamethyl-30-[(1S)-1-methylpropyl]-23-(piperidine-1-carbonyl)-27-propyl-2-(p-tolylmethyl)spiro[1,4,7,10,16,19,22,26,29,32,35-undecazatricyclo[34.5.1.0^10,14]dotetracont-38-ene-17,1′-cyclobutane]-3,6,9,15,18,21,25,28,31,34,42-undecone] | – | – | A (a compound having 10 or more and less than 20 is denoted as A) | A (a compound having 10 or more and less than 20 is denoted as A)
CCC[C@H]1C(=O)N[C@@H]([C@@H](C)CC)C(=O)N(C)CC(=O)N(C)[C@H]2C/C=C\CCN(C2=O)[C@@H](Cc2ccc(C(F)(F)F)cc2)C(=O)N(C)CC(=O)N[C@@H](CCc2cc(F)c(C(F)(F)F)c(F)c2)C(=O)N2C[C@H](OCC)C[C@H]2C(=O)N(C)C2(CCC2)C(=O)N(C)[C@@H](C2CCCC2)C(=O)N(C)[C@H](C(=O)N2CCCC2)CC(=O)N1C [PP3120, (2S,8S,12R,14S,20S,23S,27S,30S,36S,38Z)-20-cyclopentyl-8-[2-[3,5-difluoro-4-(trifluoromethyl)phenyl]ethyl]-12-ethoxy-4,16,19,22,26,32,35-heptamethyl-30-[(1S)-1-methylpropyl]-27-propyl-23-(pyrrolidine-1-carbonyl)-2-[[4-(trifluoromethyl)phenyl]methyl]spiro[1,4,7,10,16,19,22,26,29,32,35-undecazatricyclo[34.5.1.0^10,14]dotetracont-38-ene-17,1′-cyclobutane]-3,6,9,15,18,21,25,28,31,34,42-undecone] | – | – | AA (a compound having 20 or more is denoted as AA) | A (a compound having 10 or more and less than 20 is denoted as A)
CCC[C@H]1C(=O)N[C@@H]([C@@H](C)CC)C(=O)N(C)CC(=O)N(C)[C@H]2C/C=C\CCN(C2=O)[C@@H](Cc2ccc(C)cc2)C(=O)N(C)CC(=O)N[C@@H](CCc2cc(F)c(C(F)(F)F)c(F)c2)C(=O)N2C[C@H](OCC)C[C@H]2C(=O)N(C)C2(CCC2)C(=O)N(C)[C@@H](C2CCCC2)C(=O)N(C)[C@H](C(=O)N2CCCC2)CC(=O)N1C [PP3121, (2S,8S,12R,14S,20S,23S,27S,30S,36S,38Z)-20-cyclopentyl-8-[2-[3,5-difluoro-4-(trifluoromethyl)phenyl]ethyl]-12-ethoxy-4,16,19,22,26,32,35-heptamethyl-30-[(1S)-1-methylpropyl]-27-propyl-2-(p-tolylmethyl)-23-(pyrrolidine-1-carbonyl)spiro[1,4,7,10,16,19,22,26,29,32,35-undecazatricyclo[34.5.1.0^10,14]dotetracont-38-ene-17,1′-cyclobutane]-3,6,9,15,18,21,25,28,31,34,42-undecone] | – | – | A (a compound having 10 or more and less than 20 is denoted as A) | A (a compound having 10 or more and less than 20 is denoted as A)
